The values that follow are results of earlier work, collected in patent US9854807B2, “Potentiation of fixed coppers and other pesticides containing copper and supplementing plant nutrition” (priority 2014, dated 2018).

The conditions of the data set: terms used by Richardson.

For `[Cl-].[Cu+2].[Cu+2].[OH-].[OH-].[OH-]` [Copper(2) Oxychloride], the solubility in water entry is “essentially insoluble in water”.
